Like-named read-outs stand apart in the source and are kept apart here.
Columns and labels:
pTau = test: AD-related markers in Tg2576 mice after chronic treatment: pTau; format: in vivo, mouse; conditions: chronic treatment (3-5 weeks), hippocampal homogenates
Description: AD-related markers (APP processing, pTau and acetylated-tubulin) in Tg2576 mice. The effects of the compounds were also analysed in Tg2576 mice after chronic treatment (3-5 weeks) using hippocampal homogenates obtained in a buffer containing SDS (2%) and following the same protocol as described in the in vitro studies.

PDE9A isoform b = target: T1, PDE9A isoform b (Homo sapiens, UniProt O76083); test: PDE enzyme activity assay (HTRF cGMP), PDE9A; format: biochemical; conditions: recombinant enzyme; read-out: PDE9A inhibition (IC50)
T1 construct: they are full-length with N-terminal GST tag; GST (N); purchased BPS Biosciences 60090; host or cells: baculovirus infected Sf9 cells
T1 sequence (O76083 1-533 isoform O76083-2): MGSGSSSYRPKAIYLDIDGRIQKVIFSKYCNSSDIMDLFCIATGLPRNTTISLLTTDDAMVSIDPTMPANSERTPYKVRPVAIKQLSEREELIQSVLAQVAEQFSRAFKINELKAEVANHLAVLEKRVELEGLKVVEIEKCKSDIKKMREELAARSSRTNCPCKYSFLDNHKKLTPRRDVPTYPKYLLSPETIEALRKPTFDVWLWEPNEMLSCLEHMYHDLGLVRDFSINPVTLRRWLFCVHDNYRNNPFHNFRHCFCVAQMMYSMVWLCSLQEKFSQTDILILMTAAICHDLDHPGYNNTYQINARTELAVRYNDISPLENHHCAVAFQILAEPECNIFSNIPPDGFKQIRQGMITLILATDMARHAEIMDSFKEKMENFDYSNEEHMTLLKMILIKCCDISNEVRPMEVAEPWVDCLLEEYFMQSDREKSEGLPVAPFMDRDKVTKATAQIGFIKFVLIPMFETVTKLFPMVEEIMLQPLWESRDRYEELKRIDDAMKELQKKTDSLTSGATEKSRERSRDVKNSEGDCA

AcH3 = test: In-vivo activity, hippocampus of wild type mice: AcH3; design: species or system mouse; conditions: i.p. 40 mg/kg, hippocampus one hour later
Description: (§1) To determine the ability of the compounds to inhibit HDAC and PDE in the brain, the compound was administered to wild type mice by i.p. at a dose of 40 mg/kg (n=3). Another group of animals received the vehicle (1/1/8, v:v:v, DMSO/Tween 20/saline). One hour later, mice were sacrificed by cervical dislocation and their hippocampus was quickly dissected from the brains.
(§2) Total tissue homogenates were obtained by homogenizing the hippocampus in a cold lysis buffer with protease inhibitors (0.2 M NaCl, 0.1 M HEPES, 10% glycerol, 200 mM NaF, 2 mM Na4P2O7, 5 mM EDTA, 1 mM EGTA, 2 mM DTT, 0.5 mM PMSF, 1 mM Na3VO4 and Complete Protease Inhibitor Cocktail, Roche Diagnostics). The homogenate was then centrifuged at 14,000×g at 4° C. for 20 min and the supernatant aliquoted and stored at −80° C. Total protein concentrations were determined using the BioRad Bradford protein assay (BioRad Laboratories). Protein samples were analyzed as described in the “in vitro” section.

pCREB [1] = test: In-vivo activity, hippocampus of wild type mice: pCREB; design: species or system mouse; conditions: i.p. 40 mg/kg, hippocampus one hour later
Description: as §1, §2

pCREB [2] = test: PDE activity in wild type primary neurons (Western blot pCREB); format: cell-based; conditions: Mus musculus, Neuron, 0.5 h, 30 min, EC50 = 50% increase in pCREB over basal
HDAC1 = HDAC1 (Homo sapiens, UniProt Q13547); test: HDAC enzyme activity assay (fluorogenic substrate), HDAC1; format: biochemical; conditions: read-out: HDAC1 inhibition (IC50)
HDAC1, sequence (Q13547 whole entry): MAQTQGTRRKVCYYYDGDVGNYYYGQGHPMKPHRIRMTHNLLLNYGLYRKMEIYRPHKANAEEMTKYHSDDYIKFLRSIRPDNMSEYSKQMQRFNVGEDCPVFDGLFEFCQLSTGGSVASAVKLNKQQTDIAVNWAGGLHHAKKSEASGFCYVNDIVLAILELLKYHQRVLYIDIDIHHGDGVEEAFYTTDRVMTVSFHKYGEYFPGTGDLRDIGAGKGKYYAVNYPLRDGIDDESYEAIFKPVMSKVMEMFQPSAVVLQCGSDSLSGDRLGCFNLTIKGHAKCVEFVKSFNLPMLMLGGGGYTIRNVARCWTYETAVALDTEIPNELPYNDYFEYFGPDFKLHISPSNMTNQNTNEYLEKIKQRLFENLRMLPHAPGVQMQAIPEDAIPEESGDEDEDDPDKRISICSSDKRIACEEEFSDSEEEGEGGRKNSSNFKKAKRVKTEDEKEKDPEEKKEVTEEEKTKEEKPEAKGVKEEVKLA

[3] = system: phosphorylated tau (p-tau); test: AD-related markers in Tg2576 neurons: pTau; format: cell-based; conditions: Mus musculus, Neuron, 48 h, treated two days, EC50 = 50% decrease in pTau over basal
[4] = system: acetylated histone 3 at Lys9 (AcH3K9); test: HDAC activity in wild type primary neurons (Western blot AcH3K9); format: cell-based, mouse; conditions: 30 min, EC50 = 50% increase in AcH3K9 over basal
PDE4A1 = target: T2, PDE4A1 (Homo sapiens, UniProt P27815); test: PDE enzyme activity assay (HTRF cGMP), PDE4A1; format: biochemical; conditions: read-out: PDE4A1 inhibition (IC50)
T2 construct: they are full-length with N-terminal GST tag; GST (N); purchased BPS Biosciences 60040; host or cells: baculovirus infected Sf9 cells
T2 sequence (P27815 1-647 isoform P27815-4): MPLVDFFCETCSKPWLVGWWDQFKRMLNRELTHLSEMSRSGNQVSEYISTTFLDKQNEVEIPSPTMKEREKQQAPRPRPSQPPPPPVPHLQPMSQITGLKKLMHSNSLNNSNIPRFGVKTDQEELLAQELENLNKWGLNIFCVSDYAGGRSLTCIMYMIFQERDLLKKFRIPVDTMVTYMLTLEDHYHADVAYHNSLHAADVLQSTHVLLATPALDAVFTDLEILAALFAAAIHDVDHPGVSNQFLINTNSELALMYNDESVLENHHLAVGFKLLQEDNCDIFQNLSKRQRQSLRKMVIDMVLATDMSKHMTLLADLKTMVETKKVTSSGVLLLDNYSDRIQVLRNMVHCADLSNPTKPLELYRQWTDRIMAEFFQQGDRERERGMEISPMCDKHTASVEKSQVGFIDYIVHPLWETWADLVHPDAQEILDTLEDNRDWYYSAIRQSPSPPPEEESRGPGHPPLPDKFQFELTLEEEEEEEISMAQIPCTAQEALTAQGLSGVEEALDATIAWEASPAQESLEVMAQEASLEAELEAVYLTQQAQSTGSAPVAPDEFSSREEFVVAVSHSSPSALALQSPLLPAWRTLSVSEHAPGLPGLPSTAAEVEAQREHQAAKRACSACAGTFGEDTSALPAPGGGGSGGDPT

PDE4D7 = PDE4D7 (Homo sapiens, UniProt Q08499); test: PDE enzyme activity assay (HTRF cGMP), PDE4D7; format: biochemical; conditions: read-out: PDE4D7 inhibition (IC50)
PDE4D7, sequence (Q08499 1-748 isoform Q08499-11): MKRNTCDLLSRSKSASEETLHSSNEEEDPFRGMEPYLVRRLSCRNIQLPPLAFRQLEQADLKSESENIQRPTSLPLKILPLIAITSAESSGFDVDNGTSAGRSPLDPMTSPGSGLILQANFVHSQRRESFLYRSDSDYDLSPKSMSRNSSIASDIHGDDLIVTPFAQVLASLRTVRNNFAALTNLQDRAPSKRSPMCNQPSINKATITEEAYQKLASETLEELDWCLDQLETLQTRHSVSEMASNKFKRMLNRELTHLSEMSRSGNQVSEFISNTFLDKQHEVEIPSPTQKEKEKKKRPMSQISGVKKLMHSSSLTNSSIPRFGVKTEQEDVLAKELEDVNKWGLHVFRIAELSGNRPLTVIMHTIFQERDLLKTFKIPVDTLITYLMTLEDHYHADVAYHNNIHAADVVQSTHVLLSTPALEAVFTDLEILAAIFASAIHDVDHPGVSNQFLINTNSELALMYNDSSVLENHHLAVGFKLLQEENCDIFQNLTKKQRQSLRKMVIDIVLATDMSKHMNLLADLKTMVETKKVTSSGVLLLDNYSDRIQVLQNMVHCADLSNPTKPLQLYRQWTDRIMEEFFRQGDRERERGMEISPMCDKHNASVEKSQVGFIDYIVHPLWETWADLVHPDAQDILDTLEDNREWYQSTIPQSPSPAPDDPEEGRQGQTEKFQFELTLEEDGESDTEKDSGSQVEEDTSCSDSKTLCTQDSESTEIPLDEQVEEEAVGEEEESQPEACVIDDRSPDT
Description: The biochemical assay to measure PDE5A, PDE9A isoform b, PDE4D7, and PDE4A1 enzyme activities relies on the HTRF cGMP assay kit from CisBio (CisBio, Cat. #62GM2PEB), that determines the amount of cGMP present in the reaction. The enzymes were obtained from BPS Biosciences (GenBank Accession number for PDE5A: NM_001083, Cat. #60050; PDE9A: NM_001001567, Cat. #60090; PDE4D7: NM_001165899, Cat. #60047; and PDE4A1: U97584, Cat. #60040) and they are full-length with N-terminal GST tag. They were expressed in a baculovirus infected Sf9 cell expression system.
For each enzyme, enzyme activity assay was carried out in a 384-well plate in a final volume of 20 μL, as follows: • 2.5 μL of vehicle or studied compound 4× concentrated prepared in assay buffer containing 50 mM Tris-HCl, 6 mM MgCl2, pH 7.4 (PDE5A, PDE4D7, PDE4A1) and additionally 0.03% Tween-20 (PDE9A). Final percentage of DMSO was 0.5%. • 2.5 μL of PDE5A (7 μg/mL) or 2.5 μL PDE9A (0.2 μg/mL) or 2.5 μL PDE4D7 (1.25 μg/mL) or 2.5 μL PDE4A1 (1.5 μg/mL) diluted in assay buffer. […]
Fluorescence of each well was determined at […] using the plate reader EnVision (Perkin-Elmer). Results were calculated from the 665 nm/620 nm ratio. […]

| SMILES | pTau, increment in biological response vs basal (pTau) | IC50 (PDE9A isoform b) [nM] | AcH3, increment in biological response vs basal (AcH3) | pCREB, increment in biological response vs basal (pCREB [1]) | EC50 (pCREB [2]) [nM] | IC50 (HDAC1; recombinant enzyme) [nM] | EC50 [3] [nM] | AcH3 (EC50) [4] | IC50 (PDE4A1; recombinant enzyme) [nM] | IC50 (PDE4D7; recombinant enzyme) [nM] | IC50 (PDE4A1) [nM] | IC50 (HDAC1) [nM] | IC50 (PDE4D7) [nM] |
| --- | --- | --- | --- | --- | --- | --- | --- | --- | --- | --- | --- | --- | --- |
| CN1CC(=O)N2[C@H](c3ccc4c(c3)OCO4)c3[nH]c4ccccc4c3C[C@@H]2C1=O [Tadalafil, reference compound] | +++ (basal×2≦(+++)<basal×3) | > 10000 | N.E. (N.E. means No Effect) | +++ (basal×2≦(+++)<basal×3) | 10 to 1000 | > 10000 | 10 to 1000 | N.E. |  |  |  |  |  |
| COc1ccc(N(CCCCCCC(=O)NO)C(=O)c2c(Cl)cncc2Cl)cc1OC1CCCC1 [Example 5-05, 7-(N-[3,5-Dichloropyridin-4-ylcarbonyl]-N-[(3-(cyclopentyloxy)-4-methoxyphenyl)]amino)-N-hydroxyheptanamide] |  |  |  |  |  | 10 to 1000 |  |  | 1000 to 10000 | > 10000 |  |  |  |
| COc1ccc(N(C(=O)c2c(Cl)cncc2Cl)C2CCN(c3ncc(C(=O)NO)cn3)CC2)cc1OC1CCCC1 [Example 5-04] |  |  |  |  |  |  |  |  |  |  | > 10000 | 10 to 1000 | > 10000 |
